Values after ≈ are worked out from the molar mass of the structure shown.
How the values were obtained:
NCI-H460 = assay: Antiproliferative activity against human NCI-H460 cells assessed as inhibition of cell growth by MTT assay; format: functional, cell-based
MGC-803 = assay: Antiproliferative activity against human MGC-803 cells assessed as reduction in cell growth by MTT assay; format: functional, cell-based
L02 = assay: Antiproliferative activity against human L02 cells assessed as inhibition of cell growth incubated for 24 hrs by MTT assay; format: functional, cell-based; settings: L02, 24 h
SK-OV-3 = assay: Antiproliferative activity against human SK-OV-3 cells assessed as reduction in cell viability incubated for 24 hrs by CCK8 assay; format: functional, cell-based; settings: SK-OV-3, 24 h
Escherichia coli [1] = assay: Antibacterial activity against Escherichia coli MG1655 in presence of polymyxin B nonapeptide; format: functional
Escherichia coli [2] = assay: Antibacterial activity against efflux pump-efficient Escherichia coli MG1655 assessed as bacterial growth inhibition; format: functional
Escherichia coli [3] = assay: Antimicrobial activity against wild type Escherichia coli MG1655 assessed as inhibition of microbial growth; format: functional
Staphylococcus aureus = assay: Antibacterial activity against Staphylococcus aureus assessed as reduction in bacterial growth incubated for 24 hrs by broth microdilution method; format: functional

| SMILES | IC50 (NCI-H460) [µM] | IC50 (MGC-803) [µM] | IC50 (L02) [µM] | IC50 (SK-OV-3) [µM] | MIC (Escherichia coli [1]) [µg/mL] | MIC (Escherichia coli [2]) [µg/mL] | MIC (Escherichia coli [3]) [µg/mL] | MIC (Staphylococcus aureus) [µg/mL] |
| --- | --- | --- | --- | --- | --- | --- | --- | --- |
| C#Cc1cccc(NCC(O)COC(=O)[C@]2(C)CCC[C@]3(C)c4ccc(C(C)C)cc4CCC23)c1 (stereo partly specified) | ≥ 15.6 | 7.1 | ≥ 28.3 | ≥ 14.9 |  |  |  |  |
| NCc1ncc(-c2ccc(N3C[C@H](CO)OC3=O)cc2F)cc1O |  |  |  |  | 32 | 32 (≈ 96 µM) | 51 | 20 (≈ 60 µM) |
| CC(C)c1ccc2c(c1)CCC1[C@](C)(C(=O)OCC(O)CNc3ccc(Br)cc3)CCC[C@]21C (stereo partly specified) | ≥ 15.6 | 7.1 | ≥ 28.3 | ≥ 14.9 |  |  |  |  |
| CC(C)c1ccc2c(c1)CCC1[C@](C)(C(=O)OCC3CN(c4ccccc4F)C(=O)O3)CCC[C@]21C (stereo partly specified) | ≥ 4.3 | 3.82 | ≥ 26.4 | ≥ 4.1 |  |  |  |  |
| CC(C)c1ccc2c(c1)CCC1[C@](C)(C(=O)OCC(O)CNc3ccccc3F)CCC[C@]21C (stereo partly specified) | ≥ 15.6 | 7.1 | ≥ 28.3 | ≥ 14.9 |  |  |  |  |
| COc1ccc(NCC(O)COC(=O)[C@]2(C)CCC[C@]3(C)c4ccc(C(C)C)cc4CCC23)cc1 (stereo partly specified) | ≥ 15.6 | 7.1 | ≥ 28.3 | ≥ 14.9 |  |  |  |  |
| CC(C)c1ccc2c(c1)CCC1[C@](C)(C(=O)OCC3CN(c4ccc(Cl)cc4)C(=O)O3)CCC[C@]21C (stereo partly specified) | ≥ 4.3 | 3.82 | ≥ 26.4 | ≥ 4.1 |  |  |  |  |
| CC(C)c1ccc2c(c1)CCC1[C@](C)(C(=O)OCC(O)CNc3ccc(Cl)cc3)CCC[C@]21C (stereo partly specified) | ≥ 15.6 | 7.1 | ≥ 28.3 | ≥ 14.9 |  |  |  |  |
| CC(C)c1ccc2c(c1)CCC1[C@](C)(C(=O)OCC(O)CNc3cccc(Br)c3)CCC[C@]21C (stereo partly specified) | ≥ 15.6 | 7.1 | ≥ 28.3 | ≥ 14.9 |  |  |  |  |
| O=Cc1ccc(-c2ccc(N3C[C@H](CO)OC3=O)cc2F)cc1O |  |  |  |  | 8 | 16 (≈ 48.3 µM) | 128 | < 0.5 |
| CC(C)c1ccc2c(c1)CCC1[C@](C)(C(=O)OCC(O)CNc3cccc(Cl)c3)CCC[C@]21C (stereo partly specified) | ≥ 15.6 | 7.1 | ≥ 28.3 | ≥ 14.9 |  |  |  |  |
| Nc1ccc(-c2ccc(N3C[C@H](CO)OC3=O)cc2F)cc1O |  |  |  |  | 32 | 32 (≈ 101 µM) | > 64 | 4 (≈ 12.6 µM) |
| COc1cccc(N2CC(COC(=O)[C@]3(C)CCC[C@]4(C)c5ccc(C(C)C)cc5CCC34)OC2=O)c1 (stereo partly specified) | ≥ 4.3 | 3.82 | ≥ 26.4 | ≥ 4.1 |  |  |  |  |
| CC(C)c1ccc2c(c1)CCC1[C@](C)(C(=O)OCC3CN(c4cccc(Br)c4)C(=O)O3)CCC[C@]21C (stereo partly specified) | ≥ 4.3 | 3.82 | ≥ 26.4 | ≥ 4.1 |  |  |  |  |
| Cc1ccccc1NCC(O)COC(=O)[C@]1(C)CCC[C@]2(C)c3ccc(C(C)C)cc3CCC12 (stereo partly specified) | ≥ 15.6 | 7.1 | ≥ 28.3 | ≥ 14.9 |  |  |  |  |
| CC(C)c1ccc2c(c1)CCC1[C@](C)(C(=O)OCC3CN(c4cccc(Cl)c4)C(=O)O3)CCC[C@]21C (stereo partly specified) | ≥ 4.3 | 3.82 | ≥ 26.4 | ≥ 4.1 |  |  |  |  |
| COc1ccccc1NCC(O)COC(=O)[C@]1(C)CCC[C@]2(C)c3ccc(C(C)C)cc3CCC12 (stereo partly specified) | ≥ 15.6 | 7.1 | ≥ 28.3 | ≥ 14.9 |  |  |  |  |
| Cc1ccc(NCC(O)COC(=O)[C@]2(C)CCC[C@]3(C)c4ccc(C(C)C)cc4CCC23)cc1 (stereo partly specified) | ≥ 15.6 | 7.1 | ≥ 28.3 | ≥ 14.9 |  |  |  |  |
| O=C1O[C@@H](CO)CN1c1ccc(-c2ccc([N+](=O)[O-])c(O)c2)c(F)c1 |  |  |  |  | 64 | 64 (≈ 184 µM) | 64 | 0.5 (≈ 1.44 µM) |
| COc1ccccc1N1CC(COC(=O)[C@]2(C)CCC[C@]3(C)c4ccc(C(C)C)cc4CCC23)OC1=O (stereo partly specified) | ≥ 4.3 | 3.82 | ≥ 26.4 | ≥ 4.1 |  |  |  |  |
| N#Cc1ccc(O)cc1-c1ccc(N2C[C@H](CO)OC2=O)cc1F |  |  |  |  | 128 | 64 (≈ 195 µM) | > 256 | 32 (≈ 97.5 µM) |
| CC(C)c1ccc2c(c1)CCC1[C@](C)(C(=O)OCC3CN(c4cccc(F)c4)C(=O)O3)CCC[C@]21C (stereo partly specified) | ≥ 4.3 | 3.82 | ≥ 26.4 | ≥ 4.1 |  |  |  |  |
| O=C1O[C@@H](CO)CN1c1ccc(-c2ccccc2)c(F)c1 |  |  |  |  | 16 | 16 (≈ 55.7 µM) | > 64 | 1 (≈ 3.48 µM) |
| CC(C)c1ccc2c(c1)CCC1[C@](C)(C(=O)OCC3CN(c4ccc(Br)cc4)C(=O)O3)CCC[C@]21C (stereo partly specified) | ≥ 4.3 | 3.82 | ≥ 26.4 | ≥ 4.1 |  |  |  |  |
